Assay results taken from US10316017B2, “COT modulators and methods of use thereof” (Gilead Sciences, Inc., priority 2015, dated 2019).
Read-outs that look alike come from different tables or passages of the source.

Experiments:
[1] = system: TNFα production in LPS-stimulated human monocytes; test: Cot Monocyte TNFα Cell Based Assay; conditions: for IC50/EC50 [nM]: EC50 (TNFα, monocytes): second value of the cell IC50/EC50, human monocytes, 50 pg/ml LPS, 4 hours; for EC50: Homo sapiens, Monocyte, LPS-stimulated human monocytes, TNFα TR-FRET, read-out: EC50 TNF
Procedure, shortened: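 5,000 cells/well; cmpd 1 h, 37 °C, 0.5% DMSO final; LPS 50 pg/ml, 4 h, 37 °C; media TNFα by HTRF sandwich (cryptate/XL665), RT overnight; % control vs unstimulated/stimulated wells.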

[2] = molecular target: T1, human Cot catalytic domain (30-397 amino acids) (Homo sapiens, UniProt P41279); test: High Throughput Cot Biochemical Assay (KinEASE TR-FRET); conditions: 400 μM ATP
T1 construct: Purified recombinant human Cot catalytic domain (30-397 amino acids) was purchased from Cama Biosciences; purchased Cama Biosciences (so in the source)
Procedure, shortened: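 First, purified human Cot (aa 30-397) at 5 nM phosphorylates an XL665-labeled STK3 peptide (1 μM) at 400 μM ATP, pH 7.0, 0.1% DMSO. Then a europium-conjugated phospho-specific antibody binds the product, giving the TR-FRET signal.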

[3] = molecular target: T2, Human EGFR, cytoplasmic domain [669-1210] (Homo sapiens, UniProt P00533); test: High Throughput EGFR Biochemical Assay (KinEASE TR-FRET)
T2 construct: purchased Cama Biosciences (so in the source)
Experimental: Example 62: High Throughput EGFR Biochemical Assay
EGFR activity was measured using KinEASE (Cisbio), a time-resolved fluorescence resonance energy transfer (TR-FRET) immunoassay. In this assay, EGFR-catalyzes the phosphorylation of a universal Tyrosine kinase peptide substrate labeled with XL665. Europium conjugated phosphor-tyrosine specific antibody binds the resulting phosphorylated peptide. Formation of phosphorylated peptide is quantified by TR-FRET with Europium as the donor and XL665 the acceptor. The assay was performed in two main steps. The first step is the kinase reaction step and the second step is the detection step with TR-FRET reagents. In brief, test compounds 1:3 serially diluted in DMSO were delivered into Corning white, low volume, non-binding 384 well plates using the Echo 550 acoustic liquid dispenser (Labcyte®). […] After 60 min of incubation at room temperature, 10 μL of Stop and Detect Solution (1:400 Europium Cryptate labeled anti-phosphorylated peptide antibody solution and 125 nM strepavidin-XL665 Tracer in a 50 mM Hepes pH 7.0 detection buffer containing sufficient EDTA) was added.

[4] = Cot KinEASE TR-FRET, read-out: IC50 HTRF

T2 sequence (P00533 669-1210): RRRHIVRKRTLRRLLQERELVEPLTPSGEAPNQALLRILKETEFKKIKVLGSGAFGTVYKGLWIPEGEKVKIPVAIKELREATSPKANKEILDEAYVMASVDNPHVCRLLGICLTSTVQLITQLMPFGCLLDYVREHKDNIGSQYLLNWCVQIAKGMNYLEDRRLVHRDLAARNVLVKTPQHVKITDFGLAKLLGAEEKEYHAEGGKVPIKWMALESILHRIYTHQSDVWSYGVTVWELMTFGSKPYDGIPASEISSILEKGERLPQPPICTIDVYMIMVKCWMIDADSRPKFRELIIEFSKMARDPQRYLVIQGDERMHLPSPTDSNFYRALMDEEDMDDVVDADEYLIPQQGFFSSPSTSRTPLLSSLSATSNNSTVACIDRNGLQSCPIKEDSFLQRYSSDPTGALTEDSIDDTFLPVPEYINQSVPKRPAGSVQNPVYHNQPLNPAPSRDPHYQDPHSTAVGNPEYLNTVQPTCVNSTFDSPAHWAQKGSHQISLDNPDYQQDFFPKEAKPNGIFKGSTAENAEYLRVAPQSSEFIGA
T1 sequence (P41279 30-397): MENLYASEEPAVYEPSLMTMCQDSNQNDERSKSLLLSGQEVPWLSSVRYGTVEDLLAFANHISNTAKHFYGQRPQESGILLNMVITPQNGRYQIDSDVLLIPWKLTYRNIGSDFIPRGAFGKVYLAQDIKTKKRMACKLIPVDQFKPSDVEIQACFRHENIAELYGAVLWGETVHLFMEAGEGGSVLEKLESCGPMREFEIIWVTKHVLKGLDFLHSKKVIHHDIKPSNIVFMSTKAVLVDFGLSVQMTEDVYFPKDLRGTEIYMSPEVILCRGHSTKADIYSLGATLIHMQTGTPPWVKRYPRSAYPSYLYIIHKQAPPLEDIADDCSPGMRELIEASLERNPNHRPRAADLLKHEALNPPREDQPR

Question: With `Cn1cc(CNc2cc(Cl)c3ncc(C#N)c(Nc4ccc(F)c(Cl)c4)c3c2)nn1` [Comparative Example 3, reference compound] as the compound, how does the “IC50/EC50 [nM]: EC50 (TNFα, monocytes)” value [1] read?
Answer: > 10000 nM

Question: And the IC50 ([2]; IC50/EC50 [nM]: IC50 (Cot), first value of the cell IC50/EC50, 5 nM Cot)?
Answer: 67 nM

Question: And the IC50 [3]?
Answer: > 10000 nM

Question: What does the source list for `CC(Nc1cc(Cl)c2ncc(C#N)c(Nc3ccc(F)c(Cl)c3)c2c1)c1cn(C)nn1` (centres unmarked) [Comparative Example 4, reference compound]?
Answer: IC50 ([2]; first value of the cell IC50/EC50, 5 nM Cot, read-out: IC50/EC50 [nM]: IC50 (Cot)): > 10000 nM; IC50 [3]: > 10000 nM

Question: For `CCN1CCC(n2cc([C@@H](Nc3cc(Cl)c4ncc(C#N)c(Nc5ccc(F)c(Cl)c5)c4c3)c3ccccc3)nn2)CC1` [Example 919, (S)-8-chloro-4-((3-chloro-4-fluorophenyl)amino)-6-(((1-(1-ethylpiperidin-4-yl)-1H-1,2,3-triazol-4-yl)(phenyl)methyl)amino) quinoline-3-carbonitrile], which EC50 [1] is on record?
Answer: 62 nM

Question: And the “IC50/EC50 [nM]: EC50 (TNFα, monocytes)” value [1]?
Answer: 62 nM

Question: And the IC50 [2, 4]?
Answer: 2 nM

Question: And the IC50 [3]?
Answer: 2290 nM

Question: What does the source list for `Cn1cc(C(Nc2cc(Cl)c3ncc(C#N)c(Nc4ccc(F)c(Cl)c4)c3c2)c2ccccc2)nn1` (centres unmarked) [Example 920, 8-chloro-4-((3-chloro-4-fluorophenyl)amino)-6-(((1-methyl-1H-1,2,3-triazol-4-yl)(phenyl)methyl)amino) quinoline-3-carbonitrile]?
Answer: EC50 [1]: 215 nM; IC50/EC50 [nM]: EC50 (TNFα, monocytes) [1]: 215 nM; IC50 [2, 4]: 10 nM; IC50 [3]: > 10000 nM

Question: `Cc1c(-c2cn[nH]c2)cccc1[C@H](Nc1cc(Cl)c2ncc(C#N)c(NCC(C)(C)C)c2c1)c1cn(C2(C(F)F)CC2)nn1` [Example 1166, (S)-8-chloro-6-(((1-(1-(difluoromethyl)cyclopropyl)-1H-1,2,3-triazol-4-yl) (2-methyl-3-(1H-pyrazol-4-yl)phenyl)methyl)amino)-4-(neopentylamino)quinoline-3-carbonitrile] was tested. Which EC50 [1] did it give?
Answer: 47 nM

Question: What about the IC50 [2, 4] of the same compound?
Answer: 5 nM

Question: For `Cc1c(-c2cnco2)cccc1[C@H](Nc1cc(Cl)c2ncc(C#N)c(NCC(C)(C)C)c2c1)c1cn(C2(C(F)F)CC2)nn1` [Example 1167, (S)-8-chloro-6-(((1-(1-(difluoromethyl)cyclopropyl)-1H-1,2,3-triazol-4-yl)(2-methyl-3-(oxazol-5-yl)phenyl)methyl)amino)-4-(neopentylamino)quinoline-3-carbonitrile], which EC50 [1] is on record?
Answer: 62 nM

Question: What about the IC50 [2, 4] of the same compound?
Answer: 5 nM

Question: How did the EC50 [1] turn out when `Cc1c(C#N)cccc1[C@H](Nc1cc(Cl)c2ncc(C#N)c(NCC(C)(C)C)c2c1)c1nnn(C2(C(F)F)CC2)c1F` [Example 1168, (S)-8-chloro-6-(((3-cyano-2-methylphenyl)(1-(1-(difluoromethyl)cyclopropyl)-5-fluoro-1H-1,2,3-triazol-4-yl)methyl)amino)-4-(neopentylamino)quinoline-3-carbonitrile] was run?
Answer: 75 nM

Question: And the IC50 [2, 4]?
Answer: 4 nM

Question: For `CC(C)(C)CNc1c(C#N)cnc2c(Cl)cc(N[C@@H](c3ccccc3Cl)c3nnn(C4(C)CC4)c3F)cc12` [Example 1169, (S)-8-chloro-6-(((2-chlorophenyl)(5-fluoro-1-(1-methylcyclopropyl)-1H-1,2,3-triazol-4-yl)methyl)amino)-4-(neopentylamino)quinoline-3-carbonitrile], which EC50 [1] is on record?
Answer: ≥ 1000 nM

Question: And the IC50 [2, 4]?
Answer: 234 nM

Question: For `COc1c([C@@H](Nc2cc(Cl)c3ncc(C#N)c(NCC(C)(C)C)c3c2)c2ccccc2Cl)nnn1C1(C)CC1` [Example 1170, (S)-8-chloro-6-(((2-chlorophenyl)(5-methoxy-1-(1-methylcyclopropyl)-1H-1,2,3-triazol-4-yl)methyl)amino)-4-(neopentylamino)quinoline-3-carbonitrile], which EC50 [1] is on record?
Answer: ≥ 1000 nM

Question: What about the IC50 [2, 4] of the same compound?
Answer: 217 nM
